Earlier results as cited in patent publication US20260102333A1, “TOPICAL DELIVERY OF ANTIFUNGAL AGENTS FOR TREATING FUNGAL INFECTIONS” (LYOTROPIC DELIVERY SYSTEMS LTD., priority 2022, published 2026).
Where a name gives a salt, the structure may show the parent alone.

What was measured:
[1] = tested on: Trichophyton mentagrophytes
[2] = tested on: Trichophyton rubrum

In the case of `CN(C/C=C/C#CC(C)(C)C)Cc1cccc2ccccc12` [TRB, terbinafine hydrochloride], the “MIC50 (minimum inhibitory concentration required for 50% inhibition)” value [1] is given as 0.03 to 0.5 µg/mL and the “MIC50 (minimum inhibitory concentration required for 50% inhibition)” value [2] is given as 0.03 to 0.5 µg/mL.
